# Species: Rattus norvegicus
# Assay: Effects of isomer (100 uM) upon 10 uM L-HCA-induced depolarization; Control
# Type: functional
row,Compound,Others [%]
1,N[C@H](C(=O)O)[C@@H](CC(=O)O)c1ccc(Cl)cc1,114.5
2,N[C@@H](C(=O)O)[C@H](CC(=O)O)c1ccc(Cl)cc1,94.2
3,NC(C(=O)O)[C@H](CC(=O)O)c1ccc(Cl)cc1 (stereo partly drawn),130.4
